Our source for the Activity and inhibition values is ChEMBL document CHEMBL3352537 (Bioorg Med Chem Lett, 2014).

Data set [1] can be described thus: Antioxidant activity assessed as DPPH scavenging activity at 5 to 20 uM after 15 mins by UV-visible spectrophotometry. The format is physicochemical.
A short description of data set [2]: Antioxidant activity assessed as superoxide anion radical scavenging activity at 5 to 20 uM by xanthine/xanthine oxidase assay. The format is physicochemical.
For data set [3], the target named is Transcription factor p65 (Homo sapiens) (UniProt Q04206). Kind of data set: Inhibition of LPS-induced NF-kappaB p65 activation in human THP1 cells preincubated at 10 uM for 15 mins before LPS treatment measured after 16 hrs. The data set is classed as cell-based. The conditions noted are these: THP-1.
For data set [4], the target named is Prostaglandin G/H synthase 1 (Homo sapiens) (UniProt P23219). Kind of data set: Inhibition of COX1 (unknown origin) using arachidonic acid as substrate at […] after 10 mins by luminometry.

In general, inhibition refers to the drop in the measured response relative to a control, in per cent. A lower inhibition goes with a weak effect.

Chain of Transcription factor p65 (Homo sapiens) (Q04206 whole entry): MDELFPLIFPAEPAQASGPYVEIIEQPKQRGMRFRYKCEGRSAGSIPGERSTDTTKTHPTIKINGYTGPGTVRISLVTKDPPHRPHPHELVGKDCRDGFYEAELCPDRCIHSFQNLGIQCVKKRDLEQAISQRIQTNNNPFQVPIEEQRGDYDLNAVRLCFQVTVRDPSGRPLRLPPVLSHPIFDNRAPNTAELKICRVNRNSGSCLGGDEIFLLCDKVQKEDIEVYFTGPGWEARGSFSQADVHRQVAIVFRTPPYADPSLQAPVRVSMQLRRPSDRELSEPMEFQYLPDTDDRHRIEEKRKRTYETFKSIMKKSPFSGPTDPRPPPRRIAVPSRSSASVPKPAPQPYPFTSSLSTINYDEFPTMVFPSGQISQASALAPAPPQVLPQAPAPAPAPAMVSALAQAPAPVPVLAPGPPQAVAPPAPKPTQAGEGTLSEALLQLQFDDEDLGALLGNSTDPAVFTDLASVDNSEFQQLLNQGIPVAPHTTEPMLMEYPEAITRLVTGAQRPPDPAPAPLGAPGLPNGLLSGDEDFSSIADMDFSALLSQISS
Chain of Prostaglandin G/H synthase 1 (Homo sapiens) (P23219 whole entry): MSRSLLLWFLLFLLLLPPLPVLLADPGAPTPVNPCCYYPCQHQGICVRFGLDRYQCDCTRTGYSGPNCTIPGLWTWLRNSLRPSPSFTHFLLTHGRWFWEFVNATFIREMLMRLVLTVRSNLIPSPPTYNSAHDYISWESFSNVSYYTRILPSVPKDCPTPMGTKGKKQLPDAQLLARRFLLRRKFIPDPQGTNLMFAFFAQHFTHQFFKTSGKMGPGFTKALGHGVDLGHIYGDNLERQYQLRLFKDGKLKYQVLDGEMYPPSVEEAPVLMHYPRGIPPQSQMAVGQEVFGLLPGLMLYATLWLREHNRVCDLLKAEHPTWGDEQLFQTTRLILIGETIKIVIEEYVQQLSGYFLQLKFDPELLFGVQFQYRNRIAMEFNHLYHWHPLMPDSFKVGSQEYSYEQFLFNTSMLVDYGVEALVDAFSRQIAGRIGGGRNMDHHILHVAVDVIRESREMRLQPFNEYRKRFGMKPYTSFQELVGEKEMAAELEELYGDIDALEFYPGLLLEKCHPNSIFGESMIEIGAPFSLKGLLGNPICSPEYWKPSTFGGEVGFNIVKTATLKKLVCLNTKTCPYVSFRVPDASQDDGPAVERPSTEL

`O=C(O)c1ccc(O)cc1` [PARABEN]: the result in data set [1] was Active.
Still for that read-out and setting: the entry for `COc1cc(C(=O)O)ccc1O` [VANILLIC ACID] is “Active”.
Consider `Oc1ccc(CCNCc2ccc(O)c(O)c2)cc1`, for which the Activity is 33% in data set [2] and “Active” in data set [1]. In addition, the inhibition in data set [3] is 23%; in data set [4], 51%.
